Legend:
SNL model effect = assay: Data mining (cPCA) of kinematic gait data: SNL model (analgesic) and sedation effect scores; format: in vivo, rats
Method: Data mining was successfully performed to extend the multivariate kinematic data analysis and capture the analgesic effect of cannabichromene (CBC) on quantitative measurement of parameters attributed to the temporal aspects of motion to evaluate temporal aspects of motion, such as positions, angles, velocities, and accelerations of body segments and joints during motion.
Overall, 97 gait parameters were analyzed, and each parameter was averaged within each treatment group. A statistical method using Contrastive Principal Component Analysis (cPCA) was employed (Abid et al., 2018). The method of cPCA was designed to identify different combinations of original variables linked to the Spinal Nerve Ligation (SNL) model effect (pain) and learning effect. An orthogonalization procedure was then performed to create the obtained effects independent of learning and possible sedation. After the contrastive principal components (cPCs) (Model, Sedative) were established, the corresponding cPC scores were computed for each observation. The obtained cPC scores were further analyzed by using mixed two-way ANOVA followed by Dunnett's test of the estimated marginal means. The cPCA based analysis framework was implemented using R environment (R version 3.6.3). Statistical analysis was performed using Ime4 (Bates et al., 2015) and emmeans (R package version 1.4.5.) packages. The results of these comparisons were obtained by using all the previously identified components: model effect, learning effect and model orthogonal to learning.

[1] = system: SNL-induced mechanical hypersensitivity; assay: Tactile allodynia test (electronic von Frey, evF) in spinal nerve ligation (SNL) model; format: in vivo, Sprague-Dawley rats; details: for evF, Vehicle vs. treatment: Summary / evF, Vehicle vs. treatment: Predicted (LS) mean diff.: between groups; for evF, Vehicle vs. treatment: Predicted (LS) mean diff. / evF, Pre-Dosing vs. 2 h-PD: Predicted (LS) mean diff. / evF, Pre-Dosing vs. 4 h-PD: Predicted (LS) mean diff. / evF, Pre-Dosing vs. 8 h-PD: Predicted (LS) mean diff. / evF, Pre-Dosing vs. 24 h-PD: Predicted (LS) mean diff.: PWT % from baseline; for Post-SNL vs. BL: Predicted (LS) mean diff.: evF PWT % from baseline; for Post-SNL vs. BL: Predicted (LS) mean diff. / Post-SNL vs. BL: Significant? / Post-SNL vs. BL: Summary: baseline vs. D7 (pre-dosing, before treatment); for Post-SNL vs. BL: Predicted (LS) mean diff. / Post-SNL vs. BL: Significant? / Post-SNL vs. BL: Summary / evF, Pre-Dosing vs. 2 h-PD: Summary / evF, Pre-Dosing vs. 4 h-PD: Summary / evF, Pre-Dosing vs. 8 h-PD: Summary / evF, Pre-Dosing vs. 24 h-PD: Summary / evF, Pre-Dosing vs. 2 h-PD: Predicted (LS) mean diff. / evF, Pre-Dosing vs. 4 h-PD: Predicted (LS) mean diff. / evF, Pre-Dosing vs. 8 h-PD: Predicted (LS) mean diff. / evF, Pre-Dosing vs. 24 h-PD: Predicted (LS) mean diff.: within group; for duration of prolonged anti-nociceptive effect after one-time administration / Post-SNL vs. BL: Significant? / Post-SNL vs. BL: Summary: evF; for AUC of % PWT curve, Vehicle vs. treatment: Mean Diff. / AUC of % PWT curve, Vehicle vs. treatment: Summary: pre-dosing to 24 h PD; for evF, Pre-Dosing vs. 24 h-PD: Summary / evF, Pre-Dosing vs. 24 h-PD: Predicted (LS) mean diff.: pregabalin 50 mg/kg i.p. re-dosed 2 h before evF on D9
Method: The treatment groups received the following test article mixtures: • Group 1: treated with vehicle (0.9% saline) • Group 2: treated with Pregabalin (50 mg/kg) • Group 3: treated with CBC (10 mg/kg)
Administration of Treatments. CBC (cannabichromene) formulation, the vehicle, or pregabalin treatment was administered according to Table 1 on study day 8 to all study animals, and on study day 10 to 6 animals per group. The dousing route of CBC or the vehicle were intragastric (p.o.), while pregabalin was administered intraperitoneally (i.p.). In addition to D8, pregabalin was administered on D9, at 2 h prior to the evf test. All animals of the pregabalin group were euthanized on D9, following the last test trial. The CBC was dissolved and diluted to one of the following vehicles:
Spinal Nerve Ligation (SNL) Surgery. The animals were enrolled to SNL surgery in daily cohorts of n=6, according to the number of animals operated per day). The rat first received an intraperitoneal dose of 0.03 mg/kg buprenorphine (Temgesic), at minimum of 30 minutes prior to the surgery, to alleviate the operative and postoperative pain unrelated to neuropathy. The rats were anesthetized with isoflurane in 70% N2O and 30% O2; with a flow rate of 300 ml/min. Anesthesia was inducted with 5% isoflurane for 2-3 min, and maintained through a snout mask with 1-2% isoflurane thereafter.
A dorsal incision extending from L3 to S2 was performed to the medial dorsal area of the rat using aseptic technique. The L6/S1 posterior intrarticular process was exposed using a combination of blunt and sharp dissection. The L6 transverse process in the spinal column was visualized and partially removed without manipulating the nerves, followed by exposing the L4 and L5 spinal nerves distal to their emergence from the intervertebral foramina. Tight double knots of 6-0 silk suture were placed on both spinal nerves.
Tactile Allodynia Test (evF). In this study, mechanical sensitivity to punctate stimulus was defined at six time points, by using electronic von Frey (evF) device with the attached analysis software (Somedic®, Sweden).
Rats displaying inborn oversensitivity were disqualified from the study. Oversensitivity was defined as baseline paw withdrawal threshold (PWT) of <20 g with 1 mm probe. Following the baseline evF testing, the rats were weighed and numbered prior to surgery.
To perform the evF test, the rats were placed in individual von Frey test chambers standing on an elevated steel mesh. The rats were allowed to adapt in the chambers, and the test emerged after they had settled down after investigating the chamber and grooming (approximately 15 min).
Mechanical allodynia was assessed by evF test prior to SNL surgery (baseline), to define the individual “innate” sensitivity levels of the study animals. Next, the evF was performed on D7 post-SNL, to assess the hypersensitivity evoked by the SNL surgery, and to evaluate pre-dosing sensitivity values. Next day (D8), the animals were tested by evF at 2 h, at 4 h, and at 8 h post-dosing (PD). The last evF time point occurred at 24 h PD, i.e. on D9. The listed post-dosing times were used for all groups except group 2, which on D9 received pregabalin at 2 h prior to evF.
The evF apparatus was used according to the manufacturer's instructions. Briefly, upon each measurement, the force was applied to mid-plantar surface of the hind paw in a linearly increasing rate. The used evF probe diameter was 1 mm, and the chosen ascent rate of force 10 g/s. Linearity of force application was monitored real-time. The applied force (in grams) causing paw withdrawal was recorded by the
Altogether 5 repeated measurements were applied to each hind paw at each time-point, leaving a minimum of 3-min interval between the repeats. Three values closest to the median were then averaged to produce result value for each paw at any given time point. Both ipsi- and contralateral paws were tested on each test day.
Statistical Analysis. […]

[2] = Body weight monitoring in SNL study; format: in vivo, Sprague-Dawley rats; details: SNL rats; CBC 10 mg/kg, pregabalin 50 mg/kg; two-way ANOVA, Tukey's
Method: Body Weight Monitoring. The body weight of the animals was recorded at baseline evF testing, on the day of surgery (DO), and daily thereafter.

[3] = 2 h-PD, CBC 10 mg/kg p.o., pregabalin 50 mg/kg i.p.
[4] = 4 h-PD, CBC 10 mg/kg p.o., pregabalin 50 mg/kg i.p.
[5] = 8 h-PD, CBC 10 mg/kg p.o., pregabalin 50 mg/kg i.p.
[6] = 24 h-PD (D9), CBC 10 mg/kg p.o., pregabalin 50 mg/kg i.p. re-dosed 2 h before evF
[7] = CBC 10 mg/kg p.o., pregabalin 50 mg/kg i.p.

Row | Compound | evF, Vehicle vs. treatment: Summary [1, 3] | evF, Vehicle vs. treatment: Predicted (LS) mean diff. [1, 3] | evF, Vehicle vs. treatment: Summary [1, 4] | evF, Vehicle vs. treatment: Predicted (LS) mean diff. [1, 4] | evF, Vehicle vs. treatment: Summary [1, 5] | evF, Vehicle vs. treatment: Predicted (LS) mean diff. [1, 5] | evF, Vehicle vs. treatment: Summary [1, 6] | evF, Vehicle vs. treatment: Predicted (LS) mean diff. [1, 6] | evF, Vehicle vs. treatment: Summary ([1]; Pre-Dosing (D7)) | evF, Vehicle vs. treatment: Predicted (LS) mean diff. ([1]; Pre-Dosing (D7)) | Post-SNL vs. BL: Predicted (LS) mean diff. [1] | duration of prolonged anti-nociceptive effect after one-time administration [1, 7] | Post-SNL vs. BL: Significant? [1] | Post-SNL vs. BL: Summary [1] | AUC of % PWT curve, Vehicle vs. treatment: Mean Diff. [1, 7] | AUC of % PWT curve, Vehicle vs. treatment: Summary [1, 7] | evF, Pre-Dosing vs. 2 h-PD: Summary [1, 7] | evF, Pre-Dosing vs. 4 h-PD: Summary [1, 7] | evF, Pre-Dosing vs. 8 h-PD: Summary [1, 7] | evF, Pre-Dosing vs. 24 h-PD: Summary ([1]; CBC 10 mg/kg p.o.) | further results
1 | CCCCCc1cc(O)c2c(c1)OC(C)(CCC=C(C)C)C=C2 (stereo not shown) [CBC, cannabichromene] | ns | −15.45 | ns | −10.25 | ns | −17.12 | ns | −14.84 | ns | −0.627 | 45.98 | up to 8 hours | Yes | **** (p<0.0001, extremely/highly significant) | −50.00 | ** (p<0.01, very significant) | *** (p<0.001, extremely/highly significant) | * (p<0.05, significant) | * (p<0.05, significant) | ns | SNL model effect score (analgesic effect) (SNL model effect; 9 hours post-dosing, single dose CBC 10 mg/kg p.o.): No significant analgesic effect; SNL model score (analgesic effect) compared to vehicle group: p (SNL model effect; D8 5 h post-dosing, single dose CBC 10 mg/kg p.o.): < 0.05; independent sedation effect score (SNL model effect; D8, 5 h and D8, 9 h post-dosing, CBC 10 mg/kg, CBD:THC 10:10 mg/kg): did not exert any sedative effect; effect on SNL-induced hypersensitivity (evF), between-group ([1]; CBC 10 mg/kg p.o.): appears to evoke a trend of reversing hypersensitivity; evF, Pre-Dosing vs. 2 h-PD: Predicted (LS) mean diff. [1, 7]: −29.36; evF, Pre-Dosing vs. 4 h-PD: Predicted (LS) mean diff. [1, 7]: −18.71; evF, Pre-Dosing vs. 8 h-PD: Predicted (LS) mean diff. [1, 7]: −19.64; evF, Pre-Dosing vs. 24 h-PD: Predicted (LS) mean diff. ([1]; CBC 10 mg/kg p.o.): −15.44; body weight vs. vehicle over the course of the study [2]: not significantly different
2 | CC(C)C[C@H](CN)CC(=O)O [Pregabalin, pregabalin, reference compound] | ns | −12.08 | ns | −0.8299 | ns | −12.91 | ns | −7.967 | ns | −0.02247 | 46.58 | not observed | Yes | **** (p<0.0001, extremely/highly significant) | −29.80 | • (p<0.1, an established trend towards significance) | *** (p<0.001, extremely/highly significant) | ns | ns | ns | analgesic or sedative effect in fine motor kinematic performance (SNL model effect; pregabalin 50 mg/kg): no analgesic or sedative effect; evF, Pre-Dosing vs. 2 h-PD: Predicted (LS) mean diff. [1, 7]: −26.59; evF, Pre-Dosing vs. 4 h-PD: Predicted (LS) mean diff. [1, 7]: −9.891; evF, Pre-Dosing vs. 8 h-PD: Predicted (LS) mean diff. [1, 7]: −16.03; evF, Pre-Dosing vs. 24 h-PD: Predicted (LS) mean diff. ([1]; CBC 10 mg/kg p.o.): −9.176; body weight vs. vehicle over the course of the study [2]: not significantly different

Source: patent US12616704B2, “Cannabichromene formulation for pain management” (Zyus Life Sciences Inc., priority 2020, dated 2026)
